{
  "source": "patent US12174461B2",
  "about": "“Sustained release of oleic acid from contact lenses” (CooperVision International Limited, priority 2022, dated 2024)",
  "key": {"[1]": {"experiment": "Amount of DOPG loaded in stenfilcon A lens, by IPA extraction and LCMS", "type": "physicochemical", "details": "about 90 minutes", "description": "1,2-Dioleoyl-sn-glycero-3-phospho-rac-(1-glycerol) sodium salt (DOPG) from Sigma-Aldrich was dissolved into a 50% by volume ethanol (EtOH) 50% by volume deionized water solution and sonicated until the DOPG was fully dissolved to provide DOPG loading solutions ranging in concentration from 1 mg/ml to 10 mg/ml.\nSilicone hydrogel contact lenses were prepared by curing the formulation for stenfilcon A in polypropylene contact lens molds. The cured stenfilcon A was removed from the molds, and each lens was extracted in EtOH to remove unreacted monomer. The lenses were then placed in the DOPG loading solutions for about 90 minutes and then hydrated in several exchanges of DI water. The lenses were packaged in plastic blisters with about 1.2 ml of a packaging solution comprising phosphate buffered saline (PBS) and autoclaved.\nThe amount of DOPG in each lens was determined by extracting the lens with isopropanol (IPA) and measuring DOPG in the extract by LCMS. Briefly, each lens was removed from its blister pack, lightly blotted to remove excess packaging solution, and placed in a 20 mL glass vial containing 10 mL 100% IPA. The vials were placed on a bench top shaker at 300 rpm overnight (˜16 hours) at room temperature. For stenfilcon A, a single […] extraction step is sufficient to extract substantially all the DOPG from the lense. Silicone hydrogel lens materials that are more hydrophobic may require a second overnight extraction in order to extract all the DOPG, in which case the IPA from the first extraction step is removed and replaced with 3 mL fresh IPA and shaken overnight at 300 rpm at room temperature. The amount of DOPG in the IPA extract from each lens is determined by LCMS compared to a DOPG standard solution."}, "[2]": {"target": "T1, recombinant human PLA2G2A (sPLA2-IIA) (Homo sapiens, UniProt P14555)", "T1 construct": "purchased Creative BioMart PLA2G2A-669H", "T1 sequence (P14555 21-144)": "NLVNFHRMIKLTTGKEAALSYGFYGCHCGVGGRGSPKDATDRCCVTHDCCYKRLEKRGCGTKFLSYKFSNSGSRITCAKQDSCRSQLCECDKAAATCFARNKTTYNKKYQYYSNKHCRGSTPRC", "experiment": "sPLA2 digestion assay: oleic acid release from stenfilcon A lenses loaded with phospholipid, in ATF with and without sPLA2 (LCMS)", "type": "biochemical", "details": "35±2° C., 4 hours; for Oleic acid peak area in ATF (without sPLA2): 4 mm piece of phospholipid-loaded stenfilcon A lens in 100 μL ATF; for Ratio of OA peak area in ATF with and without sPLA2: stenfilcon A lens pieces, 50 ppm sPLA2", "description": "The phospholipids shown in Table 1 were obtain from Avanti Polar Lipids. 3 mg/ml loading solutions of the phospholipids shown in Table 1 were prepared by adding 2.4 mL ethanol to 9 mg of phospholipid, sonicating (up to 15 minutes) then adding 0.6 mL DI water and sonicating again (up to 15 minutes) to dissolve the phospholipid.\nHydrated contact lenses made from stenfilcon A were washed three times in 3 mL purified water for 30 minutes each time. Each washed lens was placed in 3 mL of a phospholipid loading solution and incubated at room temperature with gentle shaking at 75 rpm for 3 hours. The loaded lenses were then rinsed and hydrated in several exchanges of DI water. The lenses were packaged in a buffered saline contact lens packaging solution and autoclaved.\nAn artificial tear fluid (ATF) was prepared by adding the first three ingredients listed in Table 2 to a clean class vial and then adding 30 mL of the fourth ingredient.\nAfter autoclave each lens was removed from its package and place in a 6 mL glass vial containing 5 mL of the ATF at room temperature on a shaker at 125 rpm overnight to elute any free oleic acid that may be present in the lens.\nEach lens was rinsed in a 6 ml glass vial containing a fresh aliquot of 5 mL ATF for 30 minutes prior to running the digestion assay.\nA 50 ppm solution of sPLA2 was prepared in ATF by adding 200 μl ATF to a tube containing 10 μg recombinant human PLA2G2A (Creative BioMart, Cat. No. PLA2G2A-669H). The solution is referred to as ATF+sPLA2. Two 4 mm pieces were cut from each lens. One piece of each lens was placed in a tube with 100 μL ATF and the other piece was placed in a tube containing 100 μL ATF+sPLA2. The tubes were incubated at 35±2° C. for 4 hours with no shaking.\n50 μl of the release media from each lens at T=4 hr was transferred to HPLC vials and 500 μl isopropanol (IPA) was added and mixed well. T=0 hr HPLC vials were also prepared (50 μl ATF+500 μl IPA). All vials were sonicated for 15 minutes and centrifuged. The supernatant was removed for LCMS injection.\nThe supernatants were injected on an LCMS instrument equipped with an ACQUITY UPLC BEH C18 […], 2.1 mm×15 cm column and running a mobile phase gradient from 65% A to 90% B at a flow rate of 0.35 mL/min with A=40% acetonitrile in water with 10 mM ammonium acetate and 0.2% (v/v) ammonium hydroxide, and B=10% acetonitrile in IPA with 10 mM ammonium acetate and 0.2% (v/v) ammonium hydroxide. The mass spec detector is run at negative electrospray mode. The peaks for oleic acid (OA) in the supernatants were measured (m/z trace=281.24). The ratio of OA peak area in ATF with and without sPLA2 was calculated."}, "[3]": {"system": "sPLA2 enzymes found in human tears", "experiment": "Susceptibility of phospholipid in a silicone hydrogel contact lens body to digestion by tear sPLA2 enzymes", "type": "biochemical", "details": "phospholipid present in a silicone hydrogel contact lens body", "excerpt": "To achieve these and other advantages, and in accordance with the purposes of the present invention, as embodied and broadly described herein, the present invention, in part relates to a hydrogel contact lens comprising a polymeric lens body loaded with 2-oleoyl phospholipid. The 2-oleoyl phospholipid is advantageously susceptible to digestion by secretory phospholipase 2-acylhydrolase (sPLA2) enzymes found in human tears, especially group IIA secretory phospholipase 2-acylhydrolase (sPLA2-IIA). The 2-oleoyl phospholipid present in the contact lens body is advantageously susceptible to digestion by sPLA2 enzymes found in human tears, especially sPLA2-IIA when the 2-oleoyl phospholipid is present in the polymeric lens body of a silicone hydrogel contact lens, such as a stenfilcon A contact lens. […] For the avoidance of doubt, while the determination of whether a 2-oleoyl phospholipid is susceptible to digestion by sPLA2 enzymes may be carried out by loading the 2-oleoyl phospholipid to a stenfilcon A lens, the contact lens of the invention, including contact lenses comprising 2-oleoyl phospholipid that have been determined to be susceptible to digestion by sPLA2 enzymes, need not be stenfilcon A lenses and may be silicone hydrogel lenses of any formulation. […]"}},
  "data": [
    {"smiles": "CCCCCCCC/C=C\\CCCCCCCC(=O)OC[C@H](COP(=O)(O)OCC(O)CO)OC(=O)CCCCCCC/C=C\\CCCCCCCC", "note": "(mixture of isomers) [DOPG, 1,2-dioleoyl-sn-glycero-3-phospho-(1′-rac-glycerol)]", "values": [
      {"measurement": "Average amount of DOPG/lens", "setting": "[1]; DOPG loading concentration 1.0 mg/mL in 50% EtOH/water", "result": 240, "unit": "µg"},
      {"measurement": "Average amount of DOPG/lens", "setting": "[1]; DOPG loading concentration 2.5 mg/mL in 50% EtOH/water", "result": 495, "unit": "µg"},
      {"measurement": "Average amount of DOPG/lens", "setting": "[1]; DOPG loading concentration 5.0 mg/mL in 50% EtOH/water", "result": 760, "unit": "µg"},
      {"measurement": "Average amount of DOPG/lens", "setting": "[1]; DOPG loading concentration 7.5 mg/ml in 50% EtOH/water", "result": 895, "unit": "µg"},
      {"measurement": "Average amount of DOPG/lens", "setting": "[1]; DOPG loading concentration 10.0 mg/ml in 50% EtOH/water", "result": 975, "unit": "µg"},
      {"measurement": "Oleic acid peak area in ATF + sPLA2", "setting": "[2]; 4 mm piece of phospholipid-loaded stenfilcon A lens in 100 μL ATF + 50 ppm recombinant human PLA2G2A, LCMS m/z 281.24", "result": 9958},
      {"measurement": "Oleic acid peak area in ATF (without sPLA2)", "setting": "[2]; LCMS m/z 281.24", "result": 36},
      {"measurement": "Ratio of OA peak area in ATF with and without sPLA2", "setting": "[2]", "result": 279}
    ]},
    {"smiles": "CCCCCCCC/C=C\\CCCCCCCC(=O)OC[C@H](COP(=O)([O-])OCC[N+](C)(C)C)OC(=O)CCCCCCC/C=C\\CCCCCCCC", "note": "[DOPC, 1,2-dioleoyl-sn-glycero-3-phosphocholine, reference compound]", "values": [
      {"measurement": "Oleic acid peak area in ATF (without sPLA2)", "setting": "[2]; LCMS m/z 281.24", "result": 102},
      {"measurement": "Ratio of OA peak area in ATF with and without sPLA2", "setting": "[2]", "result": 1.2}
    ]},
    {"smiles": "CCCCCCCC/C=C\\CCCCCCCC(=O)OC[C@H](COP(=O)(O)OC[C@H](N)C(=O)O)OC(=O)CCCCCCC/C=C\\CCCCCCCC", "note": "[DOPS, 1,2-dioleoyl-sn-glycero-3-phospho-L-serine]", "values": [
      {"measurement": "Oleic acid peak area in ATF (without sPLA2)", "setting": "[2]; LCMS m/z 281.24", "result": 88}
    ]},
    {"smiles": "CCCCCCCCCCCCCC(=O)OC[C@H](COP(=O)([O-])OCC[N+](C)(C)C)OC(=O)CCCCCCCCCCCCC", "note": "[DMPC, 1,2-dimyristoyl-sn-glycero-3-phosphocholine]", "values": [
      {"measurement": "Susceptibility to digestion by sPLA2 enzymes found in human tears", "setting": "[3]", "result": "not be susceptible to digestion by sPLA2 enzymes"}
    ]},
    {"smiles": "CCCCCCCC/C=C\\CCCCCCCC(=O)OC[C@H](COP(=O)(O)OCCN)OC(=O)CCCCCCC/C=C\\CCCCCCCC", "note": "[DOPE, 1,2-dioleoyl-sn-glycero-3-phosphoethanolamine]", "values": [
      {"measurement": "Oleic acid peak area in ATF (without sPLA2)", "setting": "[2]; LCMS m/z 281.24", "result": 463},
      {"measurement": "Ratio of OA peak area in ATF with and without sPLA2", "setting": "[2]", "result": 4.6}
    ]}
  ]
}
